# Results as given in patent US8613914B2, “Peptidomimetic sulfamide compounds and antiviral uses thereof” (Novartis AG, priority 2009, dated 2013).
# Target: HCV NS3-4A serine protease (full-length NS3-4A protein) (Hepatitis C virus genotype 1a (isolate 1) (HCV), UniProt P26664)
# Assay: HCV NS3-4A protease assay
# Assay type: biochemical, HCV genotype 1a
# Settings: strain HCV-1, fluorogenic peptide substrate, read-out: Protease assay Ex. 12 IC50
# Experimental: The inhibitory activity of certain compounds of Table A against HCV NS3-4A serine protease is determined in a homogenous assay using the full-length NS3-4A protein (genotype 1a, strain HCV-1) and a commercially available internally-quenched fluorogenic peptide substrate as described by Taliani, M., et al. 1996 Anal. Biochem. 240:60-67, which is incorporated by reference in its entirety.
# HCV NS3-4A serine protease (full-length NS3-4A protein), sequence (P26664 1027-1657): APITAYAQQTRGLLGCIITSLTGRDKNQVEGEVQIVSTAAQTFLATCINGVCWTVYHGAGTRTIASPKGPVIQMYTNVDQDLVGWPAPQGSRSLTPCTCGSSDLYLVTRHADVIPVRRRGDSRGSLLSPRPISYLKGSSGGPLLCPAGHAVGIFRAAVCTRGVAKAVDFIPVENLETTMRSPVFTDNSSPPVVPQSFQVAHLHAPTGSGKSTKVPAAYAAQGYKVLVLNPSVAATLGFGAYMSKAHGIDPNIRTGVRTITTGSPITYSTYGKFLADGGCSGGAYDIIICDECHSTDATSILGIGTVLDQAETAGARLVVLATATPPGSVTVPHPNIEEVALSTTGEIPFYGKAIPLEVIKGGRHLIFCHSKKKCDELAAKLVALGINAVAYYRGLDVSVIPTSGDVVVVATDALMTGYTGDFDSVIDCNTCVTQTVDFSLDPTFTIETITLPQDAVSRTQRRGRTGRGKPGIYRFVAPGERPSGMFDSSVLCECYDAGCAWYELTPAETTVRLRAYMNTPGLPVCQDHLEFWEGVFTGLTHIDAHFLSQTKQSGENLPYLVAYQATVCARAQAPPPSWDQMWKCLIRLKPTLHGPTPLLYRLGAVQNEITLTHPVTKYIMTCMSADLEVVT
# HCV NS3-4A serine protease (full-length NS3-4A protein), sequence (P26664 1658-1711 partner): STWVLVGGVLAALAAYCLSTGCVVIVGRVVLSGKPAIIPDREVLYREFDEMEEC
row,Compound,IC50
1,"C=C[C@@H]1C[C@]1(NC(=O)[C@@H]1C[C@@]2(CN1C(=O)[C@@H](NC(=O)[C@@H](NC(=O)c1cc(C)nn1CC)C1CCCCC1)C(C)(C)C)C(C)(C)C21CCC1)C(=O)NS(=O)(=O)N1CCCC1 [Compound 180, (5R,8S)-7-{(2S)-2-[(cyclohexyl{[(1-ethyl-3-methyl-1H-pyrazol-5-yl)carbonyl]amino}acetyl)amino]-3,3-dimethylbutanoyl}-10,10-dimethyl-N-{(1R,2S)-1-[(pyrrolidin-1-ylsulfonyl)carbamoyl]-2-vinylcyclopropyl}-7-azadispiro[3.0.4.1]decane-8-carboxamide]",30 nM
2,"C=C[C@@H]1C[C@]1(NC(=O)[C@@H]1C[C@@]2(CN1C(=O)[C@@H](NC(=O)[C@@H](NC(=O)[C@@H]1CCCCN1C(C)C)C1CCCCC1)C1CCCC1)C(C)(C)C21CCC1)C(=O)NS(=O)(=O)N1CCCC1 [Compound 66, (5R,8S)-7-[(2S)-2-{[(2S)-2-cyclohexyl-2-({[(2S)-1-isopropylpiperidin-2-yl]carbonyl}amino)acetyl]amino}-2-cyclopentylacetyl]-10,10-dimethyl-N-{(1R,2S)-1-[(pyrrolidin-1-ylsulfonyl)carbamoyl]-2-vinylcyclopropyl}-7-azadispiro[3.0.4.1]decane-8-carboxamide]",5.5 nM
3,"C=C[C@@H]1C[C@]1(NC(=O)[C@@H]1C[C@@]2(CN1C(=O)[C@@H](NC(=O)[C@@H](NC(=O)[C@H]1CCCCN1C(C)C)C1CCCCC1)C(C)(C)C)C(C)(C)C21CCC1)C(=O)NS(=O)(=O)N(C)CCC [Compound 114, (5R,8S)-7-[(2S)-2-{[(2S)-2-cyclohexyl-2-({[(2R)-1-isopropylpiperidin-2-yl]carbonyl}amino)acetyl]amino}-3,3-dimethylbutanoyl]-10,10-dimethyl-N-[(1R,2S)-1-({[methyl(propyl)amino]sulfonyl}carbamoyl)-2-vinylcyclopropyl]-7-azadispiro[3.0.4.1]decane-8-carboxamide]",4.5 nM
4,"C=C[C@@H]1C[C@]1(NC(=O)[C@@H]1C[C@@]2(CN1C(=O)[C@@H](NC(=O)[C@@H](NC(=O)[C@H]1CCCCN1C(C)C)C1CCCCC1)C(C)(C)C)C(C)(C)C21CCC1)C(=O)NS(=O)(=O)N(C)CC [Compound 92, (5R,8S)-7-[(2S)-2-{[(2S)-2-cyclohexyl-2-({[(2R)-1-isopropylpiperidin-2-yl]carbonyl}amino)acetyl]amino}-3,3-dimethylbutanoyl]-N-[(1R,2S)-1-({[ethyl(methyl)amino]sulfonyl}carbamoyl)-2-vinylcyclopropyl]-10,10-dimethyl-7-azadispiro[3.0.4.1]decane-8-carboxamide]",3 nM
5,"C=C[C@@H]1C[C@]1(NC(=O)[C@@H]1C[C@@]2(CN1C(=O)[C@@H](NC(=O)[C@@H](NC(=O)[C@@H]1CCCCN1C(C)C)C(C)C)C(C)(C)C)C(C)(C)C21CCC1)C(=O)NS(=O)(=O)N(CC)CC [Compound 122, (5R,8S)-N-[(1R,2S)-1-{[(diethylamino)sulfonyl]carbamoyl}-2-vinylcyclopropyl]-7-[(2S)-2-{[(2S)-2-({[(2S)-1-isopropylpiperidin-2-yl]carbonyl}amino)-3-methylbutanoyl]amino}-3,3-dimethylbutanoyl]-10,10-dimethyl-7-azadispiro[3.0.4.1]decane-8-carboxamide]",1.4 nM
6,"C=C[C@@H]1C[C@]1(NC(=O)[C@@H]1C[C@@]2(CN1C(=O)[C@@H](NC(=O)[C@@H](NC(=O)[C@@H]1CCCCN1C(C)C)C1CCCCC1)C(C)(C)C)C(C)(C)C21CCC1)C(=O)NS(=O)(=O)N(C)CCC [Compound 112, (5R,8S)-7-[(2S)-2-{[(2S)-2-cyclohexyl-2-({[(2S)-1-isopropylpiperidin-2-yl]carbonyl}amino)acetyl]amino}-3,3-dimethylbutanoyl]-10,10-dimethyl-N-[(1R,2S)-1-({[methyl(propyl)amino]sulfonyl}carbamoyl)-2-vinylcyclopropyl]-7-azadispiro[3.0.4.1]decane-8-carboxamide]",1.4 nM
7,"C=C[C@@H]1C[C@]1(NC(=O)[C@@H]1C[C@@]2(CN1C(=O)[C@@H](NC(=O)[C@@H](NC(=O)[C@@H]1CCCCN1CCF)C(C)(C)C)C(C)(C)C)C(C)(C)C21CCC1)C(=O)NS(=O)(=O)N1CCOCC1 [Compound 8, (5R,8S)-7-[(2S)-2-{[(2S)-2-({[(2S)-1-(2-fluoroethyl)piperidin-2-yl]carbonyl}amino)-3,3-dimethylbutanoyl]amino}-3,3-dimethylbutanoyl]-10,10-dimethyl-N-{(1R,2S)-1-[(morpholin-4-ylsulfonyl)carbamoyl]-2-vinylcyclopropyl}-7-azadispiro[3.0.4.1]decane-8-carboxamide]",300 nM
8,"C=C[C@@H]1C[C@]1(NC(=O)[C@@H]1C[C@@]2(CN1C(=O)[C@@H](NC(=O)[C@@H](NC(=O)[C@@H]1CCCCN1C(C)C)C1CCCC1)C(C)(C)C)C(C)(C)C21CCC1)C(=O)NS(=O)(=O)N1CCCC1 [Compound 58, (5R,8S)-7-[(2S)-2-{[(2S)-2-cyclopentyl-2-({[(2S)-1-isopropylpiperidin-2-yl]carbonyl}amino)acetyl]amino}-3,3-dimethylbutanoyl]-10,10-dimethyl-N-{(1R,2S)-1-[(pyrrolidin-1-ylsulfonyl)carbamoyl]-2-vinylcyclopropyl}-7-azadispiro[3.0.4.1]decane-8-carboxamide]",3.5 nM
9,"CC[C@@H]1C[C@]1(NC(=O)[C@@H]1C[C@@]2(CN1C(=O)[C@@H](NC(=O)[C@@H](NC(=O)[C@@H]1CCCCN1C(C)C)C(C)(C)C)C(C)(C)C)C(C)(C)C21CCC1)C(=O)NS(=O)(=O)N1CCCC1 [Compound 30, (5R,8S)-N-{(1R,2R)-2-ethyl-1-[(pyrrolidin-1-ylsulfonyl)carbamoyl]cyclopropyl}-7-[(2S)-2-{[(2S)-2-({[(2S)-1-isopropylpiperidin-2-yl]carbonyl}amino)-3,3-dimethylbutanoyl]amino}-3,3-dimethylbutanoyl]-10,10-dimethyl-7-azadispiro[3.0.4.1]decane-8-carboxamide]",62 nM
10,"C=C[C@@H]1C[C@]1(NC(=O)[C@@H]1C[C@@]2(CN1C(=O)[C@@H](NC(=O)[C@@H](NC(=O)C1CCN(C(C)=O)CC1)C1CCCCC1)C(C)(C)C)C(C)(C)C21CCC1)C(=O)NS(=O)(=O)N1CCCC1 [Compound 194, (5R,8S)-7-[(2S)-2-{[{[(1-acetylpiperidin-4-yl)carbonyl]amino}(cyclohexyl)acetyl]amino}-3,3-dimethylbutanoyl]-10,10-dimethyl-N-{(1R,2S)-1-[(pyrrolidin-1-ylsulfonyl)carbamoyl]-2-vinylcyclopropyl}-7-azadispiro[3.0.4.1]decane-8-carboxamide]",10 nM
11,"C=C[C@@H]1C[C@]1(NC(=O)[C@@H]1C[C@@]2(CN1C(=O)[C@@H](NC(=O)[C@@H](NC(=O)[C@@H]1CCCN1CC)C(C)(C)C)C1(C)CCOCC1)C(C)(C)C21CCC1)C(=O)NS(=O)(=O)N1CCCC1 [Compound 126, 1-ethyl-L-prolyl-N-[(1S)-2-[(5R,8S)-10,10-dimethyl-8-({(1R,2S)-1-[(pyrrolidin-1-ylsulfonyl)carbamoyl]-2-vinylcyclopropyl}carbamoyl)-7-azadispiro[3.0.4.1]dec-7-yl]-1-(4-methyltetrahydro-2H-pyran-4-yl)-2-oxoethyl]-3-methyl-L-valinamide]",6 nM
12,"C=C[C@@H]1C[C@]1(NC(=O)[C@@H]1C[C@@]2(CN1C(=O)[C@@H](NC(=O)[C@@H](NC(=O)c1cnccn1)C1CCCCC1)C(C)(C)C)C(C)(C)C21CCC1)C(=O)NS(=O)(=O)N(CC)CC [Compound 173, (5R,8S)-7-[(2S)-2-({(2S)-2-cyclohexyl-2-[(pyrazin-2-ylcarbonyl)amino]acetyl}amino)-3,3-dimethylbutanoyl]-N-[(1R,2S)-1-{[(diethylamino)sulfonyl]carbamoyl}-2-vinylcyclopropyl]-10,10-dimethyl-7-azadispiro[3.0.4.1]decane-8-carboxamide]",3 nM
13,"C=C[C@@H]1C[C@]1(NC(=O)[C@@H]1C[C@@]2(CN1C(=O)[C@@H](NC(=O)[C@@H](NC(=O)[C@@H]1CCCN1C(=O)OCCF)C1CCCCC1)C1CCOCC1)C(C)(C)C21CCC1)C(=O)NS(=O)(=O)N1CCCC1 [Compound 76, 2-fluoroethyl(2S)-2-{[(1S)-1-cyclohexyl-2-{[(1S)-2-[(5R,8S)-10,10-dimethyl-8-({(1R,2S)-1-[(pyrrolidin-1-ylsulfonyl)carbamoyl]-2-vinylcyclopropyl}carbamoyl)-7-azadispiro[3.0.4.1]dec-7-yl]-2-oxo-1-(tetrahydro-2H-pyran-4-yl)ethyl]amino}-2-oxoethyl]carbamoyl}pyrrolidine-1-carboxylate]",80 nM
14,"C=C[C@@H]1C[C@]1(NC(=O)[C@@H]1C[C@@]2(CN1C(=O)[C@@H](NC(=O)[C@@H](NC(=O)[C@@H]1CCCCN1CC)C1CCCCC1)C(C)(C)C)C(C)(C)C21CCC1)C(=O)NS(=O)(=O)N1CCCC1 [Compound 37, (5R,8S)-7-[(2S)-2-{[(2S)-2-cyclohexyl-2-({[(2S)-1-ethylpiperidin-2-yl]carbonyl}amino)acetyl]amino}-3,3-dimethylbutanoyl]-10,10-dimethyl-N-{(1R,2S)-1-[(pyrrolidin-1-ylsulfonyl)carbamoyl]-2-vinylcyclopropyl}-7-azadispiro[3.0.4.1]decane-8-carboxamide]",3.3 nM
15,"C=C[C@@H]1C[C@]1(NC(=O)[C@@H]1C[C@@]2(CN1C(=O)[C@@H](NC(=O)[C@@H](NC(=O)[C@@H]1CCCN(CC)C1)C(C)(C)C)C(C)(C)C)C(C)(C)C21CCC1)C(=O)NS(=O)(=O)N1CCOCC1 [Compound 7, (5R,8S)-7-[(2S)-2-{[(2S)-2-({[(3R)-1-ethylpiperidin-3-yl]carbonyl}amino)-3,3-dimethylbutanoyl]amino}-3,3-dimethylbutanoyl]-10,10-dimethyl-N-{(1R,2S)-1-[(morpholin-4-ylsulfonyl)carbamoyl]-2-vinylcyclopropyl}-7-azadispiro[3.0.4.1]decane-8-carboxamide]",450 nM
